In patent publication US9289461B2, “Reducing the risk of autoimmune disease” (Mead Johnson Nutrition (Asia Pacific) Pte. Ltd., priority 2013, dated 2016):

Each substance was assayed on STC-1 (intestinal endocrine cell line) (assay: CCK release from STC-1 intestinal endocrine cell line). Conditions: compared with a partial hydrolysate (Gentlease) or free amino acids.
Assay type: cell-based

| Substance | CCK release from STC-1 cells |
| --- | --- |
| DISLLDAQSAPLR [specific peptide from a casein hydrolysate of the present disclosure] | may stimulate CCK release |
| GPVRGPFP [specific peptide from a casein hydrolysate of the present disclosure] | may stimulate CCK release |
| ALPMHIR [specific peptide from a casein hydrolysate of the present disclosure] | may stimulate CCK release |
